The target of one data set is T1, ITK (Homo sapiens, UniProt Q08881).
T1 sequence (Q08881 1-620): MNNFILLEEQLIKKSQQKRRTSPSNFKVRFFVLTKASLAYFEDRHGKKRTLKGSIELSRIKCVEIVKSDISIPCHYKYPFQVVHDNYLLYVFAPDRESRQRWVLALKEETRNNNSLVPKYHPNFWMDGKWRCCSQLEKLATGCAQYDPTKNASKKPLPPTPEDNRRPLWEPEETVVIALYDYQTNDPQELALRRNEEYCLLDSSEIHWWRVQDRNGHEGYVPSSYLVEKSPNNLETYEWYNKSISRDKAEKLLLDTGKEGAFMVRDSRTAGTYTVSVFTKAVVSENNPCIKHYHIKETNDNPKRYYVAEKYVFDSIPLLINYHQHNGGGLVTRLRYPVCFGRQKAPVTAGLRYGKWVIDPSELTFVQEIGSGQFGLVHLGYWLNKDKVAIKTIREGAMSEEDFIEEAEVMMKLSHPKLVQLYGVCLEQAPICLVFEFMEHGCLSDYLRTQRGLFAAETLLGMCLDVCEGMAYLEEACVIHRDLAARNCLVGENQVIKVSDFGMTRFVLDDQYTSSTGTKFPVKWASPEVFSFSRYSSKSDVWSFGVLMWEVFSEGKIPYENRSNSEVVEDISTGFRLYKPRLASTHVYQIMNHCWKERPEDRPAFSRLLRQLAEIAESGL
Nature of the data set: ITK degradation HiBiT assay. The format is cell-based. As to conditions: 4 hrs; for DC50: C-terminal HiBiT-tagged Molt4 cells; for Dmax: MOLT-4, C-terminal HiBiT-tagged Molt4 cells. More on the design: expressed in transfected cells; host or cells: Molt4 (ATCC CRL-1552), monoclonal clone 1C10, engineered to carry the HiBiT tag. The procedure, abridged: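 C-terminal HiBiT-tagged Molt4 cells (clone 1C10) treated 4 h at 32° C with an 11-point, 5-fold compound dilution series (0.5% DMSO). HiBiT lytic detection with LgBiT then luminescence read; % ITK remaining versus concentration fit by four-parameter variable-slope model to give DC50 and Dmax.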

Data set [1] is described as follows: Mouse PK analysis (blood/plasma concentration after oral administration). The format is in vivo. The conditions noted are these: mice, oral; for detected in plasma through (FIG. 4B): plasma LC/MS/MS. The procedure, abridged:
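Mice were dosed by oral gavage at 90 mg/kg with blood sampled at 1, 2 and 6 h; a second study used oral dosing with plasma taken at 6 or 24 h. Plasma levels were measured by LC/MS/MS (acetonitrile precipitation, internal-standard curve, positive ESI MRM), and Cmax, Tmax and AUClast were derived by noncompartmental analysis.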

As for `CN(C(=O)CN1CCC2(CC1)CCN(c1ccc3c(c1)C(=O)N(C1CCC(=O)NC1=O)C3=O)C2)c1ccc2cc(-c3n[nH]c4c3C[C@@H]3C(F)(F)[C@]3(C)C4)[nH]c2c1` (stereo partly drawn) [Compound 72, N-(2-((4aS,5aR)-5,5-difluoro-5a-methyl-1,4,4a,5,5a,6-hexahydrocyclopropa[f]indazol-3-yl)-1H-indol-6-yl)-2-(2-(2-(2,6-dioxopiperidin-3-yl)-1,3-dioxoisoindolin-5-yl)-2,8-diazaspiro[4.5]decan-8-yl)-N-methylacetamide], at ITK, the half-maximal degradation concentration (DC50) (in general, the midpoint of the concentration-degradation curve) worked out at 0.12 nM and the Dmax (as a rule, the greatest extent of degradation seen) came out at 86%. Besides, in data set [1] (mouse, plasma), the AUC(0-t) (commonly exposure summed from dosing to a finite time, without extrapolation to infinity) came to 0.02 µM·h; the peak level (Cmax) was 9 nM; the Tmax – broadly, the time from dosing to the highest level – amounted to 4 h.

In the case of `CN(C(=O)CCC1CCN(c2ccc3c(c2)C(=O)N(C2CCC(=O)NC2=O)C3=O)C1)c1ccc2cc(-c3n[nH]c4c3CCC(C)(C)C4)[nH]c2c1` (centres unmarked) [Compound 1, N-(2-(6,6-dimethyl-4,5,6,7-tetrahydro-1H-indazol-3-yl)-1H-indol-6-yl)-3-(1-(2-(2,6-dioxopiperidin-3-yl)-1,3-dioxoisoindolin-5-yl)pyrrolidin-3-yl)-N-methylpropanamide], on ITK, the DC50 was 10.4 nM and the Dmax was 88%. Further, the concentration at 1 h in data set [1] (mouse, plasma, 90 mg/kg, 1 h, read-out: Cal. Conc. Total (μM) 1 h) was 1.6 µM. The concentration at 2 h in data set [1] (mouse, plasma, 90 mg/kg, 2 h, read-out: Cal. Conc. Total (μM) 2 h) turned out to be 1.7 µM. For the same molecule, the concentration at 6 h in data set [1] (mouse, plasma, 90 mg/kg, 6 h, read-out: Cal. Conc. Total (μM) 6 h) was 0.7 µM.

At ITK, `CN(c1ccc2cc(-c3n[nH]c4c3C[C@@H]3C(F)(F)[C@]3(C)C4)[nH]c2c1)C(=O)[C@H]1C[C@]2(CCN(c3ccc4c(c3)C(=O)N([C@H]3CCC(=O)NC3=O)C4=O)C2)C1` (racemic) [Compound 71b, (2s,4s)-N-[2-[(4aS,5aR)-5,5-difluoro-5a-methyl-1H,4H,4aH,6H-cyclopropa[f]indazol-3-yl]-1H-indol-6-yl]-6-[2-[(3RS)-2,6-dioxopiperidin-3-yl]-1,3-dioxoisoindol-5-yl]-N-methyl-6-azaspiro[3.4]octane-2-carboxamide] showed a DC50 of 2 nM and a Dmax of 85%. Also, in data set [1] (mouse, plasma), the AUC(0-t) came to 0.78 µM·h; the Cmax (as a rule, the peak of the concentration-time curve) was found to be 223 nM; the Tmax is 1.5 h.

On to `C[C@@H](C(=O)N(C)c1ccc2cc(-c3n[nH]c4c3C[C@@H]3C(F)(F)[C@]3(C)C4)[nH]c2c1)N1CCN(CC2CCN(c3ccc(C4CCC(=O)NC4=O)cn3)CC2)CC1` (stereo partly drawn) [Compound 17, (2S)—N-(2-((4aS,5aR)-5,5-difluoro-5a-methyl-1,4,4a,5,5a,6-hexahydrocyclopropa[f]indazol-3-yl)-1H-indol-6-yl)-2-(4-((1-(5-(2,6-dioxopiperidin-3-yl)pyridin-2-yl)piperidin-4-yl)methyl)piperazin-1-yl)-N-methylpropanamide], for which, at ITK, the DC50 is < 0.001 nM. Also, the “detected in plasma through (FIG. 4B)” value in data set [1] is 24 h.

Take `Cn1c(=O)n(C2CCC(=O)NC2=O)c2cccc(N3CCC(CN4CCC5(CC4)CCN(c4ccc6cc(-c7n[nH]c8c7C[C@@H]7C(F)(F)[C@]7(C)C8)[nH]c6c4)C5=O)CC3)c21` (stereo partly drawn) [Compound 16, 3-(4-(4-((2-(2-((4aS,5aR)-5,5-difluoro-5a-methyl-1,4,4a,5,5a,6-hexahydrocyclopropa[f]indazol-3-yl)-1H-indol-6-yl)-1-oxo-2,8-diazaspiro[4.5]decan-8-yl)methyl)piperidin-1-yl)-3-methyl-2-oxo-2,3-dihydro-1H-benzo[d]imidazol-1-yl)piperidine-2,6-dione]: at ITK, the DC50 is 0.23 nM and the Dmax is 90%. Moreover, the “detected in plasma through (FIG. 4B)” value in data set [1] was 6 h. Besides, in data set [1] (mouse, plasma), the AUC(0-t) was 1.53 µM·h, the Cmax was found to be 585 nM and the Tmax was 6 h.

Source of the values: patent US20240279202A1 (NURIX THERAPEUTICS, INC., priority 2021, published 2024).
